Assay results reported in patent US20220257752A1, “NEW USE OF CYCLIC DINUCLEOTIDES” (priority 2019, published 2022).

Legend:
[1] = test system: OVA-specific IgG; assay type: in vivo, mice; details: versus OVA alone, PBS and R848
[2] = test system: H1N1 PR8 influenza A/WSN/33 (WSN)-OVA(I) strain; assay type: in vivo, mice
[3] = test system: human adult peripheral blood; test: In vitro assay using human adult blood: cytokines in supernatant (multiplex array, IL-1β ELISA); assay type: cell-based
Excerpt: (§1) Adult peripheral blood for controls was collected from healthy volunteers. Cord blood was obtained by needle puncture of the umbilical cord vein right after delivery of healthy newborn donors at the Women's Clinic (Braunschweig Central Hospital). Signed informed consent from parents was obtained, ensuring that no ulterior modification of the genetic material contained or therapeutic use was involved in our study. Citrate anti-coagulated cord blood bags (Macopharma, France) were stored at room temperature before the in vitro assays.
(§2) Adult or cord blood was mixed 1:1 with 37° C. warm RPMI 1640 medium (Gibco) and incubated with adjuvants and controls according to previously described method (Dowling, D. J., et. al., 2013, PLoS One 8 (3):e58164.). Briefly, 20 μl of the adjuvants 10× were added to 180 μl of diluted blood in quadruplicates (in a 96 U shape well plate), and incubated at 37° C., 5% CO2 for 6 h. Supernatant fluids were assayed by flow cytometry in multiplex arrays (Biolegend) or in an ELISA reader for IL-1β (eBioscience).
(§3) One of the well-established methods to assess adjuvant immunogenicity in human neonates is the use of cord blood as a surrogate (Dowling, D. J., et. al., 2013, PLoS One 8 (3):e58164. doi:). Therefore, to assess the secretory cytokine profile elicited by CDA in neonates, we incubated cord and adult blood in the presence of adjuvants and controls for 6 h. A bead-based multiplexed immunoassay array was employed in order to detect cytokines in the supernatant. […] Remarkably, CDA increased the secretion of Th1 cytokines, which are important to counteract the Th2 bias present at birth (Debock, I., et. al., 2013, J Immunol 191 (3):1231-9. doi: 10.4049/jimmunol.1203288).

[4] = test system: human cord blood; test: In vitro assay using human cord blood: cytokines in supernatant (multiplex array, IL-1β ELISA); assay type: cell-based
Excerpt: as §1, §2, §3

[5] = test system: H1N1 influenza A/WSN/33 (WSN)-OVA(I) strain; assay type: in vivo, mice; details: mouse, in vivo

Row | Molecule | OVA-specific IgG titers in sera [1] | protection conferred ([2]; mouse, in vivo) | protective CTL response against influenza virus expressing a CD8 restricted epitope ([2]; mouse, in vivo) | differences in protection during the 48 h of maximal weight loss ([2]; versus the other adjuvants and controls, unpaired t test p≤0.05) | IL-6, IL-21 and IL-10 (Tfh profile cytokines) concentrations ([3]; 6 h incubation) | TNF-α and IFN-γ (Th1 cytokines) concentrations in supernatant ([3]; 6 h incubation, compared to R848 or medium) | stimulation of cytokines produced by Th2 and Th17 cells ([3]; compared to R848 treatment and control cells) | IL-9 ([3]; over the other treatments) | IL-1β (pro-inflammatory cytokine) by ELISA ([3]; with respect to R848) | Th17 cytokines ([4]; after treatment, blood type not given) | IL-9 ([4]; cord blood samples) | IL-6, IL-21 and IL-10 (Tfh profile cytokines) concentrations ([4]; cord blood, 6 h incubation) | TNF-α and IFN-γ (Th1 cytokines) concentrations in supernatant ([4]; cord blood, 6 h incubation, compared to R848 or medium) | stimulation of cytokines produced by Th2 and Th17 cells ([4]; cord blood, compared to R848 treatment and control cells) | IL-1β (pro-inflammatory cytokine) by ELISA ([4]; cord blood, with respect to R848) | body weight over 14 days after challenge [5] | deaths after challenge ([2]; mouse, in vivo)
1 | Nc1ncnc2c1ncn2[C@@H]1O[C@@H]2COP(=O)(O)O[C@H]3[C@@H](O)[C@H](n4cnc5c(N)ncnc54)O[C@@H]3COP(=O)(O)O[C@H]2[C@H]1O [CDA, cyclic bis(3′-5′)diadenylic acid] | higher titers | significantly higher | able to promote a protective CTL response | significant | Slightly similar results | differences were not observed | more modest | difference was accentuated | slightly decreased | particularly decreased | slightly decreased | higher concentrations | higher concentrations | more modest | slightly decreased |  | 
2 | CCOCc1nc2c(N)nc3ccccc3c2n1CC(C)(C)O [R848, reference compound] |  |  |  |  |  |  |  |  |  |  |  |  |  |  |  | lost weight | 
3 | OVA: ovalbumin antigen (EndoGrade, Hyglos) given without adjuvant (protein, UniProt P01012 2-386, looked up) Ovalbumin: GSIGAASMEFCFDVFKELKVHHANENIFYCPIAIMSALAMVYLGAKDSTRTQINKVVRFDKLPGFGDSIEAQCGTSVNVHSSLRDILNQITKPNDVYSFSLASRLYAEERYPILPEYLQCVKELYRGGLEPINFQTAADQARELINSWVESQTNGIIRNVLQPSSVDSQTAMVLVNAIVFKGLWEKAFKDEDTQAMPFRVTEQESKPVQMMYQIGLFRVASMASEKMKILELPFASGTMSMLVLLPDEVSGLEQLESIINFEKLTEWTSSNVMEERKIKVYLPRMKMEEKYNLTSVLMAMGITDVFSSSANLSGISSAESLKISQAVHAAHAEINEAGREVVGSAEAGVDAASVSEEFRADHPFLFCIKHIATNAVLFFGRCVSP |  |  |  |  |  |  |  |  |  |  |  |  |  |  |  | lost weight | no deaths
